ChEMBL document CHEMBL1201862, “PubChem BioAssay data set” (2004)
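All cell lines were grown in 96-well plates and treated with compound for 48 hours. Here, GI50 denotes the concentration required for 50% inhibition of growth.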 Active and inactive are the calls of the source. Rule as the data show it: active = GI50 up to about 1.1 µM and inactive = higher.

Tests used:
Experiment in all cases: growth of human tumour cells (NCI), 48 h
A549 = system: A549
CAKI-1 = system: CAKI-1
EKVX = system: EKVX
HCC 2998 = system: HCC 2998
HL-60 = system: HL-60
HT-29 = system: HT-29
K562 = system: K562
NCI-H522 = system: NCI-H522
NCI/ADR-RES = system: NCI/ADR-RES
OVCAR-4 = system: OVCAR-4
OVCAR-5 = system: OVCAR-5
RXF 393 = system: RXF 393
SF-295 = system: SF-295
SK-MEL-28 = system: SK-MEL-28
SN12C = system: SN12C
SNB-75 = system: SNB-75
SW-620 = system: SW-620
U-251 = system: U-251
UACC-62 = system: UACC-62
TK-10 = system: TK-10

SMILES	GI50 (A549)	GI50 (CAKI-1)	GI50 (EKVX)	GI50 (HCC 2998)	GI50 (HL-60)	GI50 (HT-29)	GI50 (K562)	GI50 (NCI-H522)	GI50 (NCI/ADR-RES)	GI50 (OVCAR-4)	GI50 (OVCAR-5)	GI50 (RXF 393)	GI50 (SF-295)	GI50 (SK-MEL-28)	GI50 (SN12C)	GI50 (SNB-75)	GI50 (SW-620)	GI50 (U-251)	GI50 (UACC-62)	GI50 (TK-10)
CC(=O)OC1CC2(O)C(CCC3(C)C(c4ccc(=O)oc4)CCC32O)C2(C)C1=CC(O)C1OC12 (centres undefined)	0.028 µM (active)	0.0324 µM (active)	0.042 µM (active)	0.114 µM (active)	0.0575 µM (active)	0.135 µM (active)	0.0467 µM (active)	0.025 µM (active)	0.0378 µM (active)	0.0457 µM (active)	0.239 µM (active)	0.0331 µM (active)	0.0366 µM (active)	0.0621 µM (active)	0.0349 µM (active)	0.0624 µM (active)	0.0387 µM (active)	0.0762 µM (active)	0.0457 µM (active)	
C=CCc1cccc(/C=N\N/C(N)=N/O)c1O	3.61 µM (inactive)	3.46 µM (inactive)	3.06 µM (inactive)	3.21 µM (inactive)	2.14 µM (inactive)	6.59 µM (inactive)	3.3 µM (inactive)	3.23 µM (inactive)	2.23 µM (inactive)	5.16 µM (inactive)	5.02 µM (inactive)	2.99 µM (inactive)	2.31 µM (inactive)	11.9 µM (inactive)	4.8 µM (inactive)	4.43 µM (inactive)	6.52 µM (inactive)	4.51 µM (inactive)	2.64 µM (inactive)	
COc1nc2cccc(C(O)c3ccccc3)c2nc1-c1ccccc1 (centres undefined)	4.88 µM (inactive)	5.05 µM (inactive)	4.08 µM (inactive)		3.18 µM (inactive)	5.18 µM (inactive)	3.81 µM (inactive)	8.95 µM (inactive)	3.85 µM (inactive)	10.1 µM (inactive)	11 µM (inactive)	3.64 µM (inactive)	2.08 µM (inactive)	13.4 µM (inactive)	10.9 µM (inactive)	9.12 µM (inactive)	3.82 µM (inactive)	4.19 µM (inactive)	5.92 µM (inactive)	22.3 µM (inactive)
COc1cccc2c1C(=O)c1c(O)c3c(c(O)c1C2=O)C[C@@](O)(C(=O)CO)C[C@@H]3OC1CC(N2CCOCC2)C(O)C(C)O1 (some centres undefined)	0.00628 µM (active)	0.00948 µM (active)	0.0159 µM (active)	0.0127 µM (active)	0.0025 µM (active)	0.00628 µM (active)	0.0025 µM (active)	0.0025 µM (active)	0.00252 µM (active)	0.0201 µM (active)	0.00275 µM (active)	0.00396 µM (active)	0.0025 µM (active)	0.0027 µM (active)	0.0156 µM (active)	0.0025 µM (active)	0.00791 µM (active)	0.0025 µM (active)		0.0485 µM (active)
COC(=O)[C@@H]1C=C[C@H](NC(C)=O)C1		> 100 µM (inactive)		> 100 µM (inactive)		> 100 µM (inactive)	> 100 µM (inactive)		> 100 µM (inactive)	> 100 µM (inactive)	> 100 µM (inactive)	> 100 µM (inactive)	> 100 µM (inactive)	> 100 µM (inactive)	> 100 µM (inactive)	> 100 µM (inactive)	> 100 µM (inactive)	> 100 µM (inactive)	> 100 µM (inactive)	> 100 µM (inactive)
O=[N+]([O-])c1ccccc1S(=O)(=O)c1cccc2c1NCCC2	31.9 µM (inactive)	63.5 µM (inactive)	99.3 µM (inactive)	56.8 µM (inactive)	24 µM (inactive)	29.7 µM (inactive)	21.3 µM (inactive)		29 µM (inactive)	> 100 µM (inactive)	> 100 µM (inactive)	37.8 µM (inactive)	31.5 µM (inactive)	45.6 µM (inactive)	86.7 µM (inactive)	14.8 µM (inactive)	> 100 µM (inactive)		24.2 µM (inactive)	> 100 µM (inactive)
O=P1(c2ccccc2)Nc2ccccc2SSc2ccccc2N1	19.6 µM (inactive)	18.2 µM (inactive)	15.2 µM (inactive)	20.7 µM (inactive)	13.8 µM (inactive)	19.2 µM (inactive)	18.2 µM (inactive)	15.1 µM (inactive)	19.9 µM (inactive)	18.6 µM (inactive)	21.2 µM (inactive)	19.4 µM (inactive)	14.9 µM (inactive)	18.7 µM (inactive)	17.8 µM (inactive)	20.4 µM (inactive)	16.7 µM (inactive)	16.7 µM (inactive)	15.6 µM (inactive)	
